The text below walks through data of US6040434A, “Aldehyde oxidase inhibitors for treatment of aids” (priority 1997, dated 2000).

Some results are limits rather than exact numbers.

In series [1] the target is T1, S9 fraction of human liver (Homo sapiens, UniProt Q06278).
T1 construct: Human liver samples stored at -70° C. were partially thawed, homogenized; from tissue; host or cells: human liver, S9 fraction (9000 g supernatant)
T1 sequence (Q06278 1-1338): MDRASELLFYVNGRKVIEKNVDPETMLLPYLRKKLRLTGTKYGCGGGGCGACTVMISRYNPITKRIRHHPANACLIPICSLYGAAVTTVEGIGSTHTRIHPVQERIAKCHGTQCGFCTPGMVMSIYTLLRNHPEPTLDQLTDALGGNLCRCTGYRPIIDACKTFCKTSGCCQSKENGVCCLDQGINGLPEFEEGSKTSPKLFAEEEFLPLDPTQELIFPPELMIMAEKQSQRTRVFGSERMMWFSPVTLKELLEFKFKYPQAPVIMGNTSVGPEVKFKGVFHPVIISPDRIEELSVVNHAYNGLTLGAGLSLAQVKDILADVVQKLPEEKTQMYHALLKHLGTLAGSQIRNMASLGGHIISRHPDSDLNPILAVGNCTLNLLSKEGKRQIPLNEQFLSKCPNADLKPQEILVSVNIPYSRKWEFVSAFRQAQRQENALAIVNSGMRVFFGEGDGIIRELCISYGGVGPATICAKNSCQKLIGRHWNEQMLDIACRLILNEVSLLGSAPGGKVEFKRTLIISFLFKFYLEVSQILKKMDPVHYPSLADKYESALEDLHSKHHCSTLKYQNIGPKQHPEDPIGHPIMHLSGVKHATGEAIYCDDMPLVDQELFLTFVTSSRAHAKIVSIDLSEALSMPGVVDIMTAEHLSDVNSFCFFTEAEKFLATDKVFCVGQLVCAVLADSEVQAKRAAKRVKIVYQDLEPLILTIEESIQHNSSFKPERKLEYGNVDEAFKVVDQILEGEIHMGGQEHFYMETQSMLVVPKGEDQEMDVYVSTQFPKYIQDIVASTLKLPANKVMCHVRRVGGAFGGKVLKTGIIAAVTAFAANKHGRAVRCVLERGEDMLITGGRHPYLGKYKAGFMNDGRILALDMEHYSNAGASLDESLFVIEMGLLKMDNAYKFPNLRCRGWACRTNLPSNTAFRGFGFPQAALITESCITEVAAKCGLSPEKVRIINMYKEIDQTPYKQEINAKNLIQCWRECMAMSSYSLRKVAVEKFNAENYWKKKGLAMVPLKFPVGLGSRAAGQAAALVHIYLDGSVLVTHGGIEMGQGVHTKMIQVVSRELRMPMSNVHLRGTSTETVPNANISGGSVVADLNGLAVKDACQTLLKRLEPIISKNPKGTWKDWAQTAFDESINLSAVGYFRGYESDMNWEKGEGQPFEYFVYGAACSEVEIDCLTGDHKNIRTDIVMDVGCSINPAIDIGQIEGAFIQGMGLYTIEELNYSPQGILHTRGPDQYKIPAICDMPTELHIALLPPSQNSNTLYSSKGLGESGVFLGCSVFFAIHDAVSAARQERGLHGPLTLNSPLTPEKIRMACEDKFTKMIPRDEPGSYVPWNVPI
Put plainly: AMT formation from AZT by human liver S9 fraction / human liver samples. Format: in vitro ADME. To be noted: human liver samples; conversion of AZT to AMT. The source says: (§1) Hamster livers were processed by the same method.
(§2) This reduced the experimental variability and simplified the procedure. […] The method was as follows.
(§3) AMT formation by a human liver S9 fraction was compared with that by a hamster liver S9 fraction, as the hamster has the highest documented level of liver aldehyde oxidase activity (Kitamura, 1984; by Sugihara, 1996).

Series [2] concerns S9 fraction of human liver. Described as above. Format: in vitro ADME.
Description: as §1, §2, §3

Series [3] concerns bone marrow. To be noted: cited from earlier work.
The conditions of series [4]: in words; Veal et al., 1995; cited from earlier work.
For series [5], the system named is microsomal cytochrome P450 isozymes and microsomal NADPH-cytochrome P450 reductase. Conditions: in words; Eagling (1994); cited from earlier work.
Series [6] deals with retroviral replication. Conditions: cited from earlier work.
For series [7], the system named is cytosolic fraction of human liver (aldehyde oxidase). Format: in vitro ADME.
Description: as §1, §2

In series [8] the test system is microsomal fraction of human liver. Format: in vitro ADME.
Description: as §1, §2

The subject of series [9] is S9 fraction of hamster liver. The class given is in vitro ADME.
Description: as §1, §2, §3

Series [10] relates to bone marrow cells. To be noted: in words; cited from earlier work.
For series [11] the following is noted: in words; cited from earlier work.

As to `Cc1cn([C@H]2C[C@H](N=[N+]=[N-])[C@@H](CO)O2)c(=O)[nH]c1=O` [AZT, 3'-azido-3'-deoxythymidine], in series [1], the “share of AMT formation due to cytosolic aldehyde oxidase (2-OHP-dependent)” value is ≥ 90%. The “share of AMT formation due to microsomal enzyme activity” value in series [2] is given as “less than 10%”. For the same compound, the “patients treated with AZT suffering bone marrow toxicity” value in series [3] (depending on dosage and disease stage) was “up to 51%”. Further, the “side-effect of bone marrow toxicity” value in [3] (in words) is “bone marrow toxicity, resulting in granulocytopenia and anemia”. Moreover, in series [4], the “pathways of metabolism and elimination” value was “The predominant pathway of metabolism is by glucuronide formation and renal excretion”. In [5], the “conversion of AZT to AMT by human liver microsomes” value was “the conversion was mediated by both microsomal cytochrome P450 isozymes and microsomal NADPH-cytochrome P450 reductase”. Further, the “inhibition of retroviral replication” value in [6] was “potent inhibitor of retroviral replication”.

As to `Cc1cn([C@H]2C[C@H](N)[C@@H](CO)O2)c(=O)[nH]c1=O` [AMT, 3'-amino-3'-deoxythymidine], in [7], the “2-OHP-dependent AMT formation” value is “a higher level of AMT formation, dependent on 2-OHP” and the “NADPH-dependent AMT formation” value is reported as “no NADPH-dependent AMT formation”. For the same compound, in [8], the “2-OHP-dependent AMT formation” value was “no 2-OHP-dependent AMT formation” and the “NADPH-dependent AMT formation” value is listed as “NADPH-dependent AMT formation occurred in the microsomal fraction”. Further, the “share of AMT formation due to cytosolic aldehyde oxidase (2-OHP-dependent)” value in [1] is “about 90%”. For the same compound, in series [2], the “Ratio (2-OHP/NADPH) of AMT formation, H.L. (first column)” value is 11; the “Ratio (2-OHP/NADPH) of AMT formation, H.L. (second column)” value is on record as 9.5; the “share of AMT formation due to microsomal enzyme activity” value is given as “about 10%”. For the same compound, in [2] (human, s9, 10 µM, pH 7.5), the “AMT formation (% AMT formed/0.05 g liver), H.L. (first column)” value is on record as 1.8 % AMT formed/0.05 g liver and the “AMT formation (% AMT formed/0.05 g liver), H.L. (second column)” value came to 1.5 % AMT formed/0.05 g liver. Moreover, in series [9], the “AMT formation by hamster versus human liver S9” value is on record as “greater activity than the human fraction in the presence of either co-factor” and the “Ratio (2-OHP/NADPH) of AMT formation, HM” value worked out at 4.4. For the same compound, in series [10], the “toxicity to bone marrow cells relative to AZT” value is “more toxic to bone marrow cells than AZT”. Besides, in series [11], the “half-life in the circulation relative to AZT” value is “longer half-life in the circulation”.
